Test results from US20260193264A1, “BENZOYPARAZINE PYRAZINES AND THEIR USES” (FOGHORN THERAPEUTICS INC., priority 2022, published 2026).

What was measured:
[1] = molecular target: T1, HiBiT-BRM fusion protein in stable HeLa cell line (Homo sapiens, UniProt P51531); assay: HiBiT-BRM cell-based degradation assay (Nano-Glo HiBiT Lytic Detection, 24 h); parameters: DC50: scale not given here; details: HeLa HiBiT-BRM cells; for DC50: read-out: BRM HiBit Degradation IC50; for BRM HiBit Degradation Maximum (%): top dose 30 μM
T1 construct: expressed in transfected cells
T1 sequence (P51531 whole entry, the tested form may be a part): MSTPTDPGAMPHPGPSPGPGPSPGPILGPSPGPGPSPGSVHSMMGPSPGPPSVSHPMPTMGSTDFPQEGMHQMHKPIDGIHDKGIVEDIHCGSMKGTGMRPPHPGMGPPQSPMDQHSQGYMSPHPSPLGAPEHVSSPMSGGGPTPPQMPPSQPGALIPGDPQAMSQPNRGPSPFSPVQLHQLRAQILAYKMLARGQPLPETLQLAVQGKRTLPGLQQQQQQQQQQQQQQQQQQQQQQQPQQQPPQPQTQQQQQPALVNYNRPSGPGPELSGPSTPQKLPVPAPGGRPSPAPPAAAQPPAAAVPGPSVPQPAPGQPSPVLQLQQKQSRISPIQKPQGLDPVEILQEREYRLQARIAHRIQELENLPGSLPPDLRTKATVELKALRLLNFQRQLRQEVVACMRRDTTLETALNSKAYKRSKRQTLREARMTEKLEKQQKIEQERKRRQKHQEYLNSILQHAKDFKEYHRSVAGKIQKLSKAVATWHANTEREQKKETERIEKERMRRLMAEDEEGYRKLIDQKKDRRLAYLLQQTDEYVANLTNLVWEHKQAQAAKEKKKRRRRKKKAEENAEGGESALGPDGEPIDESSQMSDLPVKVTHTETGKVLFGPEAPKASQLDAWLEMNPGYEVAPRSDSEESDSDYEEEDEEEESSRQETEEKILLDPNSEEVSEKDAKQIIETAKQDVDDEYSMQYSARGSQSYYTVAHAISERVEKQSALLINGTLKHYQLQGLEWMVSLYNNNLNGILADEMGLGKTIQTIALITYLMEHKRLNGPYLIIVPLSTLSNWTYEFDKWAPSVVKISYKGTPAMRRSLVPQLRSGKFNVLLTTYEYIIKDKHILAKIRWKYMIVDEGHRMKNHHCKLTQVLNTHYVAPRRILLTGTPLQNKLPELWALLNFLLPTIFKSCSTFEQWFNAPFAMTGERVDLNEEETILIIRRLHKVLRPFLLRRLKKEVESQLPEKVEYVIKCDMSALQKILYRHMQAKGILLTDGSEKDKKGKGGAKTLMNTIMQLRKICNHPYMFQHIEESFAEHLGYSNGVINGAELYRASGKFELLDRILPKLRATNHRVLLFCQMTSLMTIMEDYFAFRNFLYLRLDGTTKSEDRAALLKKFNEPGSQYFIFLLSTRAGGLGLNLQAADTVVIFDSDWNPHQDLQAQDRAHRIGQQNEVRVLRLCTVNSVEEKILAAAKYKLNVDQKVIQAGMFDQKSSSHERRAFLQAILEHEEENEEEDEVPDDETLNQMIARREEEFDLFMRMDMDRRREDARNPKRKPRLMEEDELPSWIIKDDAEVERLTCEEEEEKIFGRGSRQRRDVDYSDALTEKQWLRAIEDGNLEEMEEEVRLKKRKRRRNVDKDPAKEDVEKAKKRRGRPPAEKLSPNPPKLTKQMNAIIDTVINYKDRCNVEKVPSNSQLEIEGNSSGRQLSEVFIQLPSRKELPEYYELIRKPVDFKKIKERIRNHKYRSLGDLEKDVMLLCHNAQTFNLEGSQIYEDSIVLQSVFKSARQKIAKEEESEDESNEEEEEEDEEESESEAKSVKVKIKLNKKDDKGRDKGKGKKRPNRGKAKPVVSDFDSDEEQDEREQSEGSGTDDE
Method in brief: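 Stable HiBiT-BRM HeLa cells treated 24 h with 10-point 3-fold dilutions, top final dose 30 μM, in duplicate. Luminescence read after lytic LgBiT reagent. Percent degradation was normalised to DMSO (high control) and 2 μM reference BRM/BRG1 degrader (low control).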

[2] = molecular target: T2, HiBit-BRG1 fusion protein in stable HeLa cell line expressing HiBit-BRG1 and LgBit (Homo sapiens, UniProt P51532); assay: HiBiT-BRG1 cell-based degradation assay (Nano-Glo HiBiT, 24 h); details: HeLa HiBit-BRG1/LgBit cells; for Dmax: read-out: BRG1 HiBit Degradation Maximum (%); for DC50: read-out: BRMG1 HiBit Degradation IC50
T2 construct: expressed in transfected cells
T2 sequence (P51532 whole entry, the tested form may be a part): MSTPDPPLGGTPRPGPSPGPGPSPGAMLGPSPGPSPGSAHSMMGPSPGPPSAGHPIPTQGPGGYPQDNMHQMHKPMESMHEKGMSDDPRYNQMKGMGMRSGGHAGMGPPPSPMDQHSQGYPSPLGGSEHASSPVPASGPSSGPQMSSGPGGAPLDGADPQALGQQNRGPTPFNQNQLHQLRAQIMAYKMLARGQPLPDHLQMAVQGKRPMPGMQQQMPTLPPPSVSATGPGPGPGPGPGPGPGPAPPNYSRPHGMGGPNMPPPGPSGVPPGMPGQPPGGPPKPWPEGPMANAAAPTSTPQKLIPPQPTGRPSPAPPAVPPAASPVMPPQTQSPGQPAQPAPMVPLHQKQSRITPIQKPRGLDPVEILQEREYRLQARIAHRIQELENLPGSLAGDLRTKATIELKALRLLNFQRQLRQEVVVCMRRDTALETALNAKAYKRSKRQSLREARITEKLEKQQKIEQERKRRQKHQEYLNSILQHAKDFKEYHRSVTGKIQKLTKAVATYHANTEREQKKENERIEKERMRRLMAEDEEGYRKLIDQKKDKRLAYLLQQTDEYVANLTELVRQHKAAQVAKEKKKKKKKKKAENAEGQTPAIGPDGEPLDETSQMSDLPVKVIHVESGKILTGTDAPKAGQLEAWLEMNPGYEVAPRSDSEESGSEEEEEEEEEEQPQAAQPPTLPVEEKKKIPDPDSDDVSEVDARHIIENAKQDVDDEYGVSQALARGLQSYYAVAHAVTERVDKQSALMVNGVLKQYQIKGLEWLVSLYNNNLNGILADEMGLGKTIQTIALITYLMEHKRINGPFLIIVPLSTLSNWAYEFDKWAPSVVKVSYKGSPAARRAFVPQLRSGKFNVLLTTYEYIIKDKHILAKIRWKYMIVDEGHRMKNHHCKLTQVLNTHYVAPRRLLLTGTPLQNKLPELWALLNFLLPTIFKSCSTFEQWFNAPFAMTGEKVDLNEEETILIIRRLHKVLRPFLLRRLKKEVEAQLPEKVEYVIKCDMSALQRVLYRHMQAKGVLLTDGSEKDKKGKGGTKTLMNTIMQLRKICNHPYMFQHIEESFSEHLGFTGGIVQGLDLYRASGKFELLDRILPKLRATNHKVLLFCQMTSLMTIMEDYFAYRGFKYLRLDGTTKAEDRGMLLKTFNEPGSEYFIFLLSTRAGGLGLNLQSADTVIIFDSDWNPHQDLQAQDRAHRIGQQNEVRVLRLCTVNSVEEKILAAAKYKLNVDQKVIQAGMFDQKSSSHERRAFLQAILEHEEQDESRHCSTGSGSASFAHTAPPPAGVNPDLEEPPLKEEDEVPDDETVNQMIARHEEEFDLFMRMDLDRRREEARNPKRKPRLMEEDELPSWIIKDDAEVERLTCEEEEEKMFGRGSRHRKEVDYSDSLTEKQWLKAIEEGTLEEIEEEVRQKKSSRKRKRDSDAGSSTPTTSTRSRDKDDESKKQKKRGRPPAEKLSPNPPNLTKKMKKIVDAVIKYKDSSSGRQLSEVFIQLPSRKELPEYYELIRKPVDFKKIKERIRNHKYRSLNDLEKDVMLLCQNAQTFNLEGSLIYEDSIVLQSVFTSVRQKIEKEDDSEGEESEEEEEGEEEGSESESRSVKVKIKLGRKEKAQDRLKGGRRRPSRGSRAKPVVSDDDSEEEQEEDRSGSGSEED
Method in brief: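 Stable HeLa line co-expressing HiBiT-BRG1 and LgBiT, compound-treated 24 h; luminescence read after Nano-Glo HiBiT lytic reagent. % degradation normalised between DMSO (high control) and 2 μM reference BRM/BRG1 degrader (low control).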

Compound: Cc1ncsc1-c1ccc([C@H](C)NC(=O)[C@@H]2C[C@@H](O)CN2C(=O)[C@@H](c2cc(-c3cnc(N4CC(c5ccc6cc(-c7ccccc7O)nnc6c5)C4)nc3)no2)C(C)C)cc1 [Compound 11, (2S,4R)-4-hydroxy-1-[(2R)-2-[3-(2-{3-[3-(2-hydroxyphenyl)cinnolin-7-yl]azetidin-1-yl}pyrimidin-5-yl)-1,2-oxazol-5-yl]-3-methylbutanoyl]-N-[(1S)-1-[4-(4-methyl-1,3-thiazol-5-yl)phenyl]ethyl]pyrrolidine-2-carboxamide]
- DC50 [1]: < 10 nM
- BRM HiBit Degradation Maximum (%) [1]: A (“A” indicates maximum degradation ≥75%)
- Dmax ([2]; top dose 30 μM): < 50%

Compound: Cc1ncsc1-c1ccc([C@H](C)NC(=O)[C@@H]2C[C@@H](O)CN2C(=O)[C@H](c2cc(-c3cnc(N4CCC(c5ccc6nnc(-c7ccccc7O)cc6c5)CC4)nc3)no2)C(C)C)cc1 [Compound 41]
- BRM HiBit Degradation Maximum (%) [1]: C (“C” indicates maximum degradation <50%)
- Dmax ([2]; top dose 30 μM): < 50%

Compound: Cc1ncsc1-c1ccc([C@H](C)NC(=O)[C@@H]2C[C@@H](O)CN2C(=O)[C@@H](c2cc(N3CCC(CN4CC(c5ccc6cc(-c7ccccc7O)nnc6c5)C4)CC3)no2)C(C)C)cc1 [Compound 9, (2S,4R)-4-hydroxy-1-((R)-2-(3-(4-((3-(3-(2-hydroxyphenyl)cinnolin-7-yl)azetidin-1-yl)methyl)piperidin-1-yl)isoxazol-5-yl)-3-methylbutanoyl)-N-((S)-1-(4-(4-methylthiazol-5-yl)phenyl)ethyl)pyrrolidine-2-carboxamide]
- DC50 [1]: > 10 nM
- BRM HiBit Degradation Maximum (%) [1]: A (“A” indicates maximum degradation ≥75%)
- Dmax ([2]; top dose 30 μM): < 50%

Compound: CC(C)[C@@H](C(=O)N1C[C@H](O)C[C@H]1C(=O)N[C@@H](C)c1ccccc1)c1cc(-c2ccc3nnc(-c4ccccc4O)cc3c2)no1 [Compound 133, (2S,4R)-4-hydroxy-1-((R)-2-(3-(3-(2-hydroxyphenyl)cinnolin-6-yl)isoxazol-5-yl)-3-methylbutanoyl)-N-((S)-1-phenylethyl)pyrrolidine-2-carboxamide]
- DC50 [1]: < 10 nM
- BRM HiBit Degradation Maximum (%) [1]: A (“A” indicates maximum degradation ≥75%)
- DC50 [2]: > 10 nM
- Dmax ([2]; top dose 30 μM): > 75%

Compound: Cc1ncsc1-c1ccc([C@H](C)NC(=O)[C@@H]2C[C@@H](O)CN2C(=O)[C@@H](c2cc(N3CC4(C3)CN(c3cc5nnc(-c6ccccc6O)cc5cc3OC(F)F)C4)no2)C(C)C)cc1 [Compound 206, (2S,4R)-1-((R)-2-(3-(6-(6-(difluoromethoxy)-3-(2-hydroxyphenyl)cinnolin-7-yl)-2,6-diazaspiro[3.3]heptan-2-yl)isoxazol-5-yl)-3-methylbutanoyl)-4-hydroxy-N-((S)-1-(4-(4-methylthiazol-5-yl)phenyl)ethyl)pyrrolidine-2-carboxamide]
- DC50 [1]: < 10 nM
- BRM HiBit Degradation Maximum (%) [1]: A (“A” indicates maximum degradation ≥75%)
- DC50 [2]: > 10 nM
- Dmax ([2]; top dose 30 μM): > 50%

Compound: Cc1ncsc1-c1ccc([C@H](C)NC(=O)[C@@H]2C[C@@H](O)CN2C(=O)[C@@H](c2cc(-c3cnc(N4CCN(c5ccc6cc(-c7ccccc7O)nnc6c5)CC4)nc3)no2)C(C)C)cc1 [Compound 40]
- DC50 [1]: < 10 nM
- BRM HiBit Degradation Maximum (%) [1]: A (“A” indicates maximum degradation ≥75%)
- Dmax ([2]; top dose 30 μM): < 50%

Compound: Cc1ncsc1-c1ccc([C@H](C)NC(=O)[C@@H]2C[C@@H](O)CN2C(=O)C(C(C)C)n2cc(N3CCN(CC4CCCN(c5ccc6cc(-c7ccccc7O)nnc6c5)C4)CC3)nn2)cc1 (stereo partly drawn) [Compound 260, (2S,4R)-4-hydroxy-1-(2-(4-(4-((1-(3-(2-hydroxyphenyl)cinnolin-7-yl)piperidin-3-yl)methyl)piperazin-1-yl)-1H-1,2,3-triazol-1-yl)-3-methylbutanoyl)-N-((S)-1-(4-(4-methylthiazol-5-yl)phenyl)ethyl)pyrrolidine-2-carboxamide]
- DC50 [1]: > 10 nM
- BRM HiBit Degradation Maximum (%) [1]: A (“A” indicates maximum degradation ≥75%)
- DC50 [2]: > 10 nM
- Dmax ([2]; top dose 30 μM): > 75%

Compound: Cc1ncsc1-c1ccc([C@H](C)NC(=O)[C@@H]2C[C@@H](O)CN2C(=O)[C@@H](c2cc(N3CCC[C@@H](c4ccc5nnc(-c6ccccc6O)cc5c4)C3)no2)C(C)C)cc1 [Compound 101, (2S,4R)-4-hydroxy-1-((R)-2-(3-((S)-3-(3-(2-hydroxyphenyl)cinnolin-6-yl)piperidin-1-yl)isoxazol-5-yl)-3-methylbutanoyl)-N-((S)-1-(4-(4-methylthiazol-5-yl)phenyl)ethyl)pyrrolidine-2-carboxamide]
- DC50 [1]: > 10 nM
- BRM HiBit Degradation Maximum (%) [1]: A (“A” indicates maximum degradation ≥75%)
- Dmax ([2]; top dose 30 μM): < 50%

Compound: Cc1ncsc1-c1ccc([C@H](C)NC(=O)[C@@H]2C[C@@H](O)CN2C(=O)[C@@H](c2cc(-c3cnc(N4CC(c5cc6cc(-c7ccccc7O)nnc6cc5Cl)C4)nc3)no2)C(C)C)cc1 [Compound 30]
- DC50 [1]: < 10 nM
- BRM HiBit Degradation Maximum (%) [1]: A (“A” indicates maximum degradation ≥75%)
- DC50 [2]: > 10 nM
- Dmax ([2]; top dose 30 μM): > 75%

Compound: COc1cc2nnc(-c3ccccc3O)cc2cc1N1CC2(CN(c3cc([C@H](C(=O)N4C[C@H](O)C[C@H]4C(=O)N[C@@H](C)c4ccc(-c5scnc5C)cc4)C(C)C)on3)C2)C1 [Compound 158, (2S,4R)-4-hydroxy-1-((R)-2-(3-(6-(3-(2-hydroxyphenyl)-7-methoxycinnolin-6-yl)-2,6-diazaspiro[3.3]heptan-2-yl)isoxazol-5-yl)-3-methylbutanoyl)-N-((S)-1-(4-(4-methylthiazol-5-yl)phenyl)ethyl)pyrrolidine-2-carboxamide]
- DC50 [1]: < 10 nM
- BRM HiBit Degradation Maximum (%) [1]: A (“A” indicates maximum degradation ≥75%)
- DC50 [2]: < 10 nM
- Dmax ([2]; top dose 30 μM): > 75%

Compound: COc1cc2cc(-c3ccccc3O)nnc2cc1CN1CC[C@@H](N2CCN(c3cc([C@H](C(=O)N4C[C@H](O)C[C@H]4C(=O)N[C@@H](C)c4ccc(-c5scnc5C)cc4)C(C)C)on3)CC2)C(F)(F)C1 [Compound 218, (2S,4R)-1-[(2R)-2-(3-{4-[(4R)-3,3-difluoro-1-{[3-(2-hydroxyphenyl)-6-methoxycinnolin-7-yl]methyl}piperidin-4-yl]piperazin-1-yl}-1,2-oxazol-5-yl)-3-methylbutanoyl]-4-hydroxy-N-[(1S)-1-[4-(4-methyl-1,3-thiazol-5-yl)phenyl]ethyl]pyrrolidine-2-carboxamide]
- DC50 [1]: < 10 nM
- BRM HiBit Degradation Maximum (%) [1]: A (“A” indicates maximum degradation ≥75%)
- DC50 [2]: > 10 nM
- Dmax ([2]; top dose 30 μM): > 75%

Compound: Cc1ncsc1-c1ccc([C@H](C)NC(=O)[C@@H]2C[C@@H](O)CN2C(=O)[C@@H](c2cn(-c3ccc4nnc(-c5ccccc5O)cc4c3)nn2)C(C)C)cc1 (single isomer, unassigned) [Compound 161]
- DC50 [1]: < 10 nM
- BRM HiBit Degradation Maximum (%) [1]: A (“A” indicates maximum degradation ≥75%)
- DC50 [2]: < 10 nM
- Dmax ([2]; top dose 30 μM): > 75%

Compound: Cc1ncsc1-c1ccc([C@H](C)NC(=O)[C@@H]2C[C@@H](O)CN2C(=O)[C@H](C(C)C)n2cnc(N3CC4(CN(c5ccc6cc(-c7ccccc7O)nnc6c5)C4)C3)n2)cc1 [Compound 267, (2S,4R)-4-hydroxy-1-[(2S)-2-(3-{6-[3-(2-hydroxyphenyl)cinnolin-7-yl]-2,6-diazaspiro[3.3]heptan-2-yl}-1,2,4-triazol-1-yl)-3-methylbutanoyl]-N-[(1S)-1-[4-(4-methyl-1,3-thiazol-5-yl)phenyl]ethyl]pyrrolidine-2-carboxamide]
- DC50 [1]: > 100 nM
- BRM HiBit Degradation Maximum (%) [1]: B (“B” indicates maximum degradation ≥50%)
- Dmax ([2]; top dose 30 μM): < 50%

Compound: Cc1ncsc1-c1ccc([C@H](C)NC(=O)[C@@H]2C[C@@H](O)CN2C(=O)[C@H](c2cc(-c3cnc(N4CCN(c5ccc6cc(-c7ccccc7O)nnc6c5)CC4)nc3)no2)C(C)C)cc1 [Compound 46]
- DC50 [1]: > 100 nM
- BRM HiBit Degradation Maximum (%) [1]: A (“A” indicates maximum degradation ≥75%)
- BRG1 HiBit Degradation Maximum (%) ([2]; top dose 30 μM): C (“C” indicates maximum degradation <50%)

Compound: Cc1ncsc1-c1ccc([C@H](C)NC(=O)[C@@H]2C[C@@H](O)CN2C(=O)C(c2cc(N3CCC(C4CN(c5ccc6cc(-c7ccccc7O)nnc6c5)C4)CC3)no2)C(C)C)cc1 (stereo partly drawn) [Compound 225, (2S,4R)-4-hydroxy-1-(2-(3-(4-(1-(3-(2-hydroxyphenyl)cinnolin-7-yl)azetidin-3-yl)piperidin-1-yl)isoxazol-5-yl)-3-methylbutanoyl)-N-((S)-1-(4-(4-methylthiazol-5-yl)phenyl)ethyl)pyrrolidine-2-carboxamide]
- DC50 [1]: < 10 nM
- BRM HiBit Degradation Maximum (%) [1]: A (“A” indicates maximum degradation ≥75%)
- DC50 [2]: > 10 nM
- Dmax ([2]; top dose 30 μM): > 75%

Compound: Cc1ncsc1-c1ccc([C@H](C)NC(=O)[C@@H]2C[C@@H](O)CN2C(=O)[C@H](c2cc(-c3cnc(N4CCN(c5ccc6cc(-c7ccccc7O)nnc6c5)CC4)nc3)no2)C(C)C)cc1 [Compound 39]
- BRM HiBit Degradation Maximum (%) [1]: C (“C” indicates maximum degradation <50%)
- Dmax ([2]; top dose 30 μM): < 50%

Compound: Cc1ncsc1-c1ccc([C@H](C)NC(=O)[C@@H]2C[C@@H](O)CN2C(=O)C(C(C)C)n2cc(N3CCC4(CCCN4c4ccc5cc(-c6ccccc6O)nnc5c4)C3)nn2)cc1 (stereo partly drawn) [Compound 262, (2S,4R)-4-hydroxy-1-(2-(4-(1-(3-(2-hydroxyphenyl)cinnolin-7-yl)-1,7-diazaspiro[4.4]nonan-7-yl)-1H-1,2,3-triazol-1-yl)-3-methylbutanoyl)-N-((S)-1-(4-(4-methylthiazol-5-yl)phenyl)ethyl)pyrrolidine-2-carboxamide]
- DC50 [1]: > 100 nM
- BRM HiBit Degradation Maximum (%) [1]: A (“A” indicates maximum degradation ≥75%)
- DC50 [2]: > 100 nM
- Dmax ([2]; top dose 30 μM): > 50%
